From PubChem BioAssay AID463199 (Broad Institute, 2010) come the findings set out here.

The term AC50 denotes the midpoint of the concentration-response curve, whichever way the signal moves.

The experiment deals with S. cerevisiae Burl-1 ts mutant growth, BacTiter-Glo, 38.5C 24 h. The experiment in a line: growth induction of Burl-1 ts yeast mutant, dose response, counter-screen for SUMOylation pathway inhibitor project, whole organism, S. cerevisiae, luminescence (AID 463199).

Molecules are shown by their SMILES. Activity calls are given as the source filed them.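 How the source made its calls: active means AC50, the dose giving half-maximal effect, exceeds a fixed cutoff for a compound that rescues yeast growth under heat; inactive means the rest, inconclusive results apart.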

For the molecule `Cc1ccc(C(=O)/C=C/Nc2ccccc2C(N)=O)cc1`, the AC50 was > 42 µM (inactive).

Turning to `CCCCC(=O)NCCc1ccc(S(N)(=O)=O)cc1`, the AC50 is > 42 µM (inactive).

Regarding `Cc1ccc(-c2nn(-c3ccccc3)cc2C(=O)N2CCN(c3ccccn3)CC2)cc1`, the AC50 was > 42 µM (inactive).

For the molecule `NNC(=O)c1[nH]c2ccccc2c1-c1ccccc1`, the AC50 was > 42 µM (inactive).

Turning to `CCN(CC)S(=O)(=O)c1cc(NC(=O)COC(=O)CCc2nc3ccccc3s2)ccc1C`, the AC50 is > 42 µM (inactive).

For `O=C1NC2(CCCCC2)NN1c1ccccc1`, the AC50 was > 42 µM (inactive).

Turning to `Cc1cc(C)nc(SCC2COc3ccccc3O2)n1` (stereo unspecified), the AC50 was > 42 µM (inactive).

With `CC1(C)CC(=O)c2cnc(NC(=O)CSc3nc4ccccc4o3)nc2C1`, the AC50 was > 42 µM (inactive).

Turning to `COc1cccc(/C=N/NC(=O)CNC(=O)c2ccco2)c1O`, the AC50 was > 42 µM (inactive).

Take `O=C(O)c1ccc(COc2c(F)c(F)cc(F)c2F)cc1`: the AC50 was > 42 µM (inactive).

For the molecule `COc1cc(CNCc2ccc3c(c2)OCO3)c([N+](=O)[O-])cc1OC`, the AC50 was > 42 µM (inactive).

As to `c1ccc(-c2nc(N3CCOCC3)c3ccccc3n2)nc1`, the AC50 was > 42 µM (inactive).

On to `O=C(CN1CCN(C(=O)c2ccccc2)CC1)Nc1ncc(Br)cc1Br`, for which the AC50 is > 42 µM (inactive).

As for `O=C(CCC(=O)Nc1ccc(F)cc1)N/N=C/c1cccs1`, the AC50 was > 42 µM (inactive).

On to `COc1ccc2c(Cl)c(C(=O)NN3CCN(C)CC3)sc2c1`, for which the AC50 was > 42 µM (inactive).

On to `COC(=O)CCCC(=O)NCC1(N(C)Cc2ccccc2)Cc2ccccc2C1`, for which the AC50 was > 42 µM (inactive).

On to `CCn1c(CSCc2ccc(F)cc2)nnc1SCC(=O)NCc1ccccc1`, for which the AC50 was > 42 µM (inactive).

Take `O=C(CC(c1ccccc1)c1ccccc1O)NCCN1CCOCC1` (stereo unspecified): the AC50 was > 42 µM (inactive).

For the molecule `CCCCc1nnc(NC(=O)CSc2nc(O)c(-c3ccccc3)c(=O)[nH]2)s1`, the AC50 was > 42 µM (inactive).

For the molecule `Cc1c(C(=O)NC(C)C)oc2c1-c1[nH]ncc1CC2`, the AC50 was > 42 µM (inactive).

In the case of `Cc1ccc(C)n1-n1cnc2sc3c(c2c1=O)CCCCC3`, the AC50 was > 42 µM (inactive).

Turning to `O=C(CCN1CCc2ccccc2C1)Nc1ccc2c(c1)OCO2`, the AC50 is > 42 µM (inactive).

On to `CCC(C)[C@H]1COCCS(=O)(=O)N1Cc1ccc(C)cc1` (stereo partly specified), for which the AC50 was > 42 µM (inactive).

Turning to `Cc1cc(C)n(CCOC(=O)C2C(C=C(Cl)Cl)C2(C)C)n1` (stereo unspecified), the AC50 is > 42 µM (inactive).

For the molecule `CCCCCCCCCCOC(=O)Cn1c(COc2ccc(OC)cc2)[n+](C)c2ccccc21`, the AC50 is > 42 µM (inactive).

Turning to `O=C(CCC(=O)OCC(=O)c1ccc(Br)cc1)Nc1cccc2cccnc12`, the AC50 is > 42 µM (inactive).

Regarding `O=C(NC1CCCCC1)c1ccc2c(=O)n(CC3CCCO3)c(=O)[nH]c2c1` (stereo unspecified), the AC50 is > 42 µM (inactive).

For the molecule `Cc1ccccc1-c1nc(CN2CCCC(C(=O)NCc3cccnc3)C2)c(C)o1` (stereo unspecified), the AC50 was > 42 µM (inactive).

As for `COc1ccccc1-c1nnc(SCC(=O)NC2CCS(=O)(=O)C2)n1N` (stereo unspecified), the AC50 was > 42 µM (inactive).

As for `O=C(NC1CCCCC1)N(Cc1cc2cc3c(cc2[nH]c1=O)OCCO3)C1CCCCC1`, the AC50 is > 42 µM (inactive).

For `CN(C)C(=O)CNC(=O)C1CCCCC1`, the AC50 is > 42 µM (inactive).

Consider `CCCCN(C/C=C/c1ccccc1OC)Cc1ccccc1`, for which the AC50 was > 42 µM (inactive).

As for `CCC1CCCCN1C(=O)CSc1nc2c([nH]c3ccccc32)c(=O)n1C` (stereo unspecified), the AC50 is > 42 µM (inactive).

For the molecule `Cc1cc2ncc(C(=O)N=CN(C)C)cn2n1`, the AC50 was > 42 µM (inactive).

For the molecule `Cc1nnc(N=c2ssnc2Cl)o1`, the AC50 is > 42 µM (inactive).

`CCCn1c(SC(C)C(=O)NCC2CCCO2)nc2sc(CC)cc2c1=O` (stereo unspecified): the AC50 was > 42 µM (inactive).
